According to patent US11117900B2 (Vertex Pharmaceuticals Incorporated, priority 2012, dated 2021):

These compounds were tested on HCT116 colorectal cancer cells (assay: Cisplatin sensitization assay (96 h MTS cell viability)). Conditions: Cisplatin sensitization value.
Type: cell-based
Summary of the method: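 The MTS viability read, after 1 h with reagent, followed 96 h of co-treatment at 37° C. in 5% CO2. Both compound and cisplatin were titrated 2-fold from a 10 μM top final concentration in a complete concentration matrix on HCT116 cells. Scores +++/++/+ reflect cisplatin sensitization value ranges.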
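Further: compound concentration needed to lower the IC50 of Cisplatin alone by a set fold.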

Row | SMILES | Cisplatin Sensitization Assay
1 | CN1CC2(CCC1=O)CCN(c1ccncc1NC(=O)c1c(N)nn3cc(F)cnc13)CC2 [I-N-231, 2-amino-6-fluoro-N-(4-(2-methyl-3-oxo-2,9-diazaspiro[5.5]undecan-9-yl)pyridin-3-yl)pyrazolo[1,5-a]pyrimidine-3-carboxamide] | +++ (Compounds with a Cisplatin sensitization value of <0.02 μM are marked with “+++.”)
2 | Cc1ccc(-c2ccncc2NC(=O)c2c(N)nn3cc(F)cnc23)cn1 [I-C-22, 2-amino-6-fluoro-N-(6-methyl-[3,4′-bipyridin]-3′-yl)pyrazolo[1,5-a]pyrimidine-3-carboxamide] | ++ (Compounds with a Cisplatin sensitization value >0.02 μM but <0.2 μM are marked with “++.”)
3 | Nc1nn2cc(F)cnc2c1C(=O)Nc1cncc(F)c1N1CCN(C(=O)CN2CCC2)CC1 [I-N-160, 2-amino-N-(4-(4-(2-(azetidin-1-yl)acetyl)piperazin-1-yl)-5-fluoropyridin-3-yl)-6-fluoropyrazolo[1,5-a]pyrimidine-3-carboxamide] | +++ (Compounds with a Cisplatin sensitization value of <0.02 μM are marked with “+++.”)
4 | CN1CCN(C(=O)C2CCN(c3c(F)cncc3NC(=O)c3c(N)nn4cc(Cl)cnc34)CC2)CC1 [I-G-5, 2-amino-6-chloro-N-(5-fluoro-4-(4-(4-methylpiperazine-1-carbonyl)piperidin-1-yl)pyridin-3-yl)pyrazolo[1,5-a]pyrimidine-3-carboxamide] | +++ (Compounds with a Cisplatin sensitization value of <0.02 μM are marked with “+++.”)
5 | CN1CCN(c2ccncc2NC(=O)c2c(N)nn3cc(Cl)cnc23)CC1 [I-N-59, 2-amino-6-chloro-N-(4-(4-methylpiperazin-1-yl)pyridin-3-yl)pyrazolo[1,5-a]pyrimidine-3-carboxamide] | ++ (Compounds with a Cisplatin sensitization value >0.02 μM but <0.2 μM are marked with “++.”)
6 | N#CCc1cnc2c(C(=O)Nc3cnccc3-c3ccccc3)c(N)nn2c1 [I-C-6, 2-amino-6-(cyanomethyl)-N-(4-phenylpyridin-3-yl)pyrazolo[1,5-a]pyrimidine-3-carboxamide] | +++ (Compounds with a Cisplatin sensitization value of <0.02 μM are marked with “+++.”)
7 | Nc1nn2cc(F)cnc2c1C(=O)Nc1cncc(F)c1N1CCC(n2ccnc2)CC1 [I-N-288, N-(4-(4-(1H-imidazol-1-yl)piperidin-1-yl)-5-fluoropyridin-3-yl)-2-amino-6-fluoropyrazolo[1,5-a]pyrimidine-3-carboxamide] | +++ (Compounds with a Cisplatin sensitization value of <0.02 μM are marked with “+++.”)
8 | Nc1nn2cc(F)cnc2c1C(=O)Nc1cnccc1O[C@H]1CCCNC1 [I-O-85, (S)-2-amino-6-fluoro-N-(4-(piperidin-3-yloxy)pyridin-3-yl)pyrazolo[1,5-a]pyrimidine-3-carboxamide] | +++ (Compounds with a Cisplatin sensitization value of <0.02 μM are marked with “+++.”)
9 | Nc1nn2cc(F)cnc2c1C(=O)Nc1cncc(F)c1N1CCC(C(=O)N2CCC(N3CCCC3)CC2)CC1 [I-G-59, 2-amino-6-fluoro-N-(5-fluoro-4-(4-(4-(pyrrolidin-1-yl)piperidine-1-carbonyl)piperidin-1-yl)pyridin-3-yl)pyrazolo[1,5-a]pyrimidine-3-carboxamide] | +++ (Compounds with a Cisplatin sensitization value of <0.02 μM are marked with “+++.”)
10 | Cc1ncc(-c2ccncc2NC(=O)c2c(N)nn3cc(F)cnc23)n1C [I-C-77, 2-amino-N-(4-(1,2-dimethyl-1H-imidazol-5-yl)pyridin-3-yl)-6-fluoropyrazolo[1,5-a]pyrimidine-3-carboxamide] | +++ (Compounds with a Cisplatin sensitization value of <0.02 μM are marked with “+++.”)
11 | CN(C)S(=O)(=O)C1CCN(c2c(F)cncc2NC(=O)c2c(N)nn3cc(F)cnc23)CC1 [I-N-146, 2-amino-N-(4-(4-(N,N-dimethylsulfamoyl)piperidin-1-yl)-5-fluoropyridin-3-yl)-6-fluoropyrazolo[1,5-a]pyrimidine-3-carboxamide] | +++ (Compounds with a Cisplatin sensitization value of <0.02 μM are marked with “+++.”)
12 | CC(C)Oc1ccncc1NC(=O)c1c(N)nn2cc(CC#N)cnc12 [I-O-35, 2-amino-6-(cyanomethyl)-N-(4-isopropoxypyridin-3-yl)pyrazolo[1,5-a]pyrimidine-3-carboxamide] | +++ (Compounds with a Cisplatin sensitization value of <0.02 μM are marked with “+++.”)
13 | Nc1nn2cc(F)cnc2c1C(=O)Nc1cnccc1C1CCN(C(=O)C23CCN(CC2)CC3)CC1 [I-C-18, 2-amino-6-fluoro-N-(4-(1-(quinuclidine-4-carbonyl)piperidin-4-yl)pyridin-3-yl)pyrazolo[1,5-a]pyrimidine-3-carboxamide] | + (Compounds with a Cisplatin sensitization value >0.2 μM but <5 μM are marked with “+.”)
14 | Nc1nn2cc(F)cnc2c1C(=O)Nc1cncc(F)c1OC1CCN(C2COC2)CC1 [I-O-91, 2-amino-6-fluoro-N-(5-fluoro-4-((1-(oxetan-3-yl)piperidin-4-yl)oxy)pyridin-3-yl)pyrazolo[1,5-a]pyrimidine-3-carboxamide] | ++ (Compounds with a Cisplatin sensitization value >0.02 μM but <0.2 μM are marked with “++.”)
15 | Nc1nn2cc(F)cnc2c1C(=O)Nc1cnccc1OC1COC1 [I-O-92, 2-amino-6-fluoro-N-(4-(oxetan-3-yloxy)pyridin-3-yl)pyrazolo[1,5-a]pyrimidine-3-carboxamide] | +++ (Compounds with a Cisplatin sensitization value of <0.02 μM are marked with “+++.”)
16 | CN(C)CCN(C)C(=O)C1CCN(c2c(F)cncc2NC(=O)c2c(N)nn3cc(F)cnc23)CC1 [I-G-31, 2-amino-N-(4-(4-((2-(dimethylamino)ethyl)(methyl)carbamoyl)piperidin-1-yl)-5-fluoropyridin-3-yl)-6-fluoropyrazolo[1,5-a]pyrimidine-3-carboxamide] | +++ (Compounds with a Cisplatin sensitization value of <0.02 μM are marked with “+++.”)
17 | CS(=O)(=O)C1CCN(c2c(F)cncc2NC(=O)c2c(N)nn3cc(F)cnc23)CC1 [I-N-165, 2-amino-6-fluoro-N-(5-fluoro-4-(4-(methylsulfonyl)piperidin-1-yl)pyridin-3-yl)pyrazolo[1,5-a]pyrimidine-3-carboxamide] | +++ (Compounds with a Cisplatin sensitization value of <0.02 μM are marked with “+++.”)
18 | N#CCc1cnc2c(C(=O)Nc3cnccc3Oc3ccccc3)c(N)nn2c1 [I-O-25, 2-amino-6-(cyanomethyl)-N-(4-phenoxypyridin-3-yl)pyrazolo[1,5-a]pyrimidine-3-carboxamide] | +++ (Compounds with a Cisplatin sensitization value of <0.02 μM are marked with “+++.”)
19 | CC1(C)CN(c2ccncc2NC(=O)c2c(N)nn3cc(F)cnc23)CCS1(=O)=O [I-N-252, 2-amino-N-(4-(2,2-dimethyl-1,1-dioxidothiomorpholino)pyridin-3-yl)-6-fluoropyrazolo[1,5-a]pyrimidine-3-carboxamide] | +++ (Compounds with a Cisplatin sensitization value of <0.02 μM are marked with “+++.”)
20 | CN(C)C(=O)C1CCN(c2c(F)cncc2NC(=O)c2c(N)nn3cc(F)cnc23)CC1 [I-G-29, 2-amino-N-(4-(4-(dimethylcarbamoyl)piperidin-1-yl)-5-fluoropyridin-3-yl)-6-fluoropyrazolo[1,5-a]pyrimidine-3-carboxamide] | +++ (Compounds with a Cisplatin sensitization value of <0.02 μM are marked with “+++.”)
21 | CN(C)C(=O)[C@H]1CC[C@@H](Oc2ccncc2NC(=O)c2c(N)nn3cc(F)cnc23)CC1 [I-O-17, 2-amino-N-(4-(((1s,4s)-4-(dimethylcarbamoyl)cyclohexyl)oxy)pyridin-3-yl)-6-fluoropyrazolo[1,5-a]pyrimidine-3-carboxamide] | +++ (Compounds with a Cisplatin sensitization value of <0.02 μM are marked with “+++.”)
22 | Nc1nn2cc(F)cnc2c1C(=O)Nc1cncc(C2CC2)c1N1CCN(C2COC2)CC1 [I-N-32, 2-amino-N-(5-cyclopropyl-4-(4-(oxetan-3-yl)piperazin-1-yl)pyridin-3-yl)-6-fluoropyrazolo[1,5-a]pyrimidine-3-carboxamide] | ++ (Compounds with a Cisplatin sensitization value >0.02 μM but <0.2 μM are marked with “++.”)
23 | N#CCc1cnc2c(C(=O)Nc3cnccc3N3CCCCCC3)c(N)nn2c1 [I-N-79, 2-amino-N-(4-(azepan-1-yl)pyridin-3-yl)-6-(cyanomethyl)pyrazolo[1,5-a]pyrimidine-3-carboxamide] | ++ (Compounds with a Cisplatin sensitization value >0.02 μM but <0.2 μM are marked with “++.”)
24 | Nc1nn2cc(Cl)cnc2c1C(=O)Nc1cncc(F)c1N1CCC(C(=O)N2CCN3CCC2CC3)CC1 [I-G-87, N-(4-(4-(1,4-diazabicyclo[3.2.2]nonane-4-carbonyl)piperidin-1-yl)-5-fluoropyridin-3-yl)-2-amino-6-chloropyrazolo[1,5-a]pyrimidine-3-carboxamide] | +++ (Compounds with a Cisplatin sensitization value of <0.02 μM are marked with “+++.”)
25 | CN1CCN(c2cc(N)ncc2NC(=O)c2c(N)nn3cc(Cl)cnc23)CC1 [I-N-50, 2-amino-N-(6-amino-4-(4-methylpiperazin-1-yl)pyridin-3-yl)-6-chloropyrazolo[1,5-a]pyrimidine-3-carboxamide] | + (Compounds with a Cisplatin sensitization value >0.2 μM but <5 μM are marked with “+.”)
26 | Nc1nn2cc(F)cnc2c1C(=O)Nc1cnccc1-n1cnc(C(F)(F)F)c1 [I-N-27, 2-amino-6-fluoro-N-(4-(4-(trifluoromethyl)-1H-imidazol-1-yl)pyridin-3-yl)pyrazolo[1,5-a]pyrimidine-3-carboxamide] | ++ (Compounds with a Cisplatin sensitization value >0.02 μM but <0.2 μM are marked with “++.”)
27 | N#CCc1cnc2c(C(=O)Nc3cnccc3O[C@H]3CCOC3)c(N)nn2c1 [I-O-42, (S)-2-amino-6-(cyanomethyl)-N-(4-((tetrahydrofuran-3-yl)oxy)pyridin-3-yl)pyrazolo[1,5-a]pyrimidine-3-carboxamide] | +++ (Compounds with a Cisplatin sensitization value of <0.02 μM are marked with “+++.”)
